SMILES strings stand for the structures.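 Assay format: 96-well plates, 48-hour exposure. GI50 marks 50% less growth. TGI denotes the concentration required for complete inhibition of growth.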 Bounds are passed on as bounds.

Data on 8 compounds can be found in PubChem BioAssay (NCI).

Among the test systems are SK-MEL-2 melanoma; M14 melanoma; NCI-H226 lung; HCT-15 colon; TK-10 renal; HT29 colon; EKVX NSCLC; UACC-62 melanoma; CCRF-CEM leukemia; OVCAR-5 ovarian.
What all share (experiment): NCI tumour cell line growth inhibition, 48 h

Consider `CC[C@H](Nc1nc(NCc2cnc(C)cc2C)c2ncn(C(C)C)c2n1)[C@@H](C)O`, for which the GI50 with SK-MEL-2 melanoma was 0.549 µM; in the assay on M14 melanoma, 318 nM; with NCI-H226 lung, 267 nM; in the assay on HCT-15 colon, 349 nM; in the assay on TK-10 renal, 0.625 µM; with HT29 colon, 331 nM. Also, the GI50 in the assay with EKVX NSCLC was 319 nM; in the assay with UACC-62 melanoma, 0.304 µM; in the assay with CCRF-CEM leukemia it was 326 nM; in the assay on OVCAR-5 ovarian it was 0.282 µM. In addition, the TGI in the assay on SK-MEL-2 melanoma was 3.01 µM; in the assay with M14 melanoma, 4.31 µM; with NCI-H226 lung, 0.934 µM; in the assay with HCT-15 colon, 4.89 µM; with TK-10 renal, greater than 100 µM; in the assay on HT29 colon, greater than 100 µM. Moreover, the TGI with EKVX NSCLC is 2.02 µM; in the assay with UACC-62 melanoma, 1.88 µM; in the assay with CCRF-CEM leukemia, greater than 100 µM; with OVCAR-5 ovarian, greater than 100 µM.
As to `O=NNc1ccc(S(=O)(=O)c2ccccc2)cn1`, the TGI in the assay on SK-MEL-2 melanoma, with M14 melanoma, in the assay with NCI-H226 lung, with HCT-15 colon, in the assay with TK-10 renal and in the assay with HT29 colon was greater than 100 µM each time. Also, the TGI in the assay on EKVX NSCLC, in the assay on UACC-62 melanoma, in the assay on CCRF-CEM leukemia and in the assay with OVCAR-5 ovarian was greater than 100 µM throughout.
On to `CC(C)(O)CS(=O)(=O)Nc1ccc2c(c1)CCN(C(=O)COc1cccnc1)C2`, for which the GI50 with SK-MEL-2 melanoma is greater than 100 µM; in the assay on M14 melanoma it was 153 nM; with NCI-H226 lung it was greater than 100000 nM; in the assay with HCT-15 colon, 476 nM; in the assay with TK-10 renal, greater than 100 µM; with HT29 colon it was 743 nM. Also, the GI50 in the assay on EKVX NSCLC was greater than 100000 nM; in the assay with UACC-62 melanoma, greater than 100 µM; with CCRF-CEM leukemia, 1020 nM. In addition, the TGI with SK-MEL-2 melanoma, in the assay on M14 melanoma, with NCI-H226 lung, in the assay on HCT-15 colon, in the assay with TK-10 renal and in the assay on HT29 colon was greater than 100 µM throughout. The TGI in the assay with EKVX NSCLC, in the assay with UACC-62 melanoma, in the assay with CCRF-CEM leukemia and in the assay with OVCAR-5 ovarian was greater than 100 µM in each case.
In the case of `C=CC(=O)N1CCN(c2nc(=O)n(-c3c(C)ccnc3C(C)C)c3nc(-c4c(O)cccc4F)c(F)cc23)[C@@H](C)C1`, the GI50 is 31 µM with SK-MEL-2 melanoma; 17000 nM in the assay with M14 melanoma; 25400 nM in the assay with NCI-H226 lung; 29500 nM in the assay on HCT-15 colon; 23.8 µM in the assay with TK-10 renal; 35900 nM in the assay with HT29 colon. In addition, the GI50 in the assay with EKVX NSCLC is 48600 nM; in the assay with UACC-62 melanoma, 28.4 µM; in the assay with CCRF-CEM leukemia it was 25700 nM; in the assay on OVCAR-5 ovarian it was 62.9 µM. In addition, the TGI in the assay with SK-MEL-2 melanoma is greater than 78 µM; in the assay on M14 melanoma, greater than 52.6 µM; in the assay with NCI-H226 lung, greater than 100 µM; with HCT-15 colon, greater than 74.3 µM; in the assay with TK-10 renal, greater than 90.9 µM; with HT29 colon it was greater than 100 µM. Also, the TGI was greater than 100 µM with EKVX NSCLC, greater than 73.6 µM in the assay on UACC-62 melanoma, 83.1 µM in the assay on CCRF-CEM leukemia and greater than 100 µM in the assay on OVCAR-5 ovarian.
On to `C#CCC(Cc1cnc2nc(N)nc(N)c2n1)c1ccc(C(=O)N[C@@H](CCC(=O)O)C(=O)O)cc1` (stereo partly drawn), for which the GI50 is greater than 100 µM in the assay on SK-MEL-2 melanoma; less than 10 nM in the assay on M14 melanoma; less than 10 nM with NCI-H226 lung; less than 10 nM in the assay on HCT-15 colon; less than 0.01 µM with TK-10 renal; less than 10 nM in the assay on HT29 colon. Also, the GI50 in the assay with UACC-62 melanoma is less than 0.01 µM; in the assay with CCRF-CEM leukemia, less than 10 nM; in the assay with OVCAR-5 ovarian, less than 0.01 µM. Moreover, the TGI with SK-MEL-2 melanoma, in the assay with M14 melanoma, with NCI-H226 lung, with HCT-15 colon, with TK-10 renal and in the assay on HT29 colon was greater than 100 µM in each case. Further, the TGI with EKVX NSCLC, with UACC-62 melanoma, with CCRF-CEM leukemia and with OVCAR-5 ovarian was greater than 100 µM in each case.
For the compound `NC(=S)N/N=C(\Cc1nc2ccc(Cl)cc2[nH]c1=O)C(=O)Nc1ccc(Cl)cc1`, the TGI in the assay on SK-MEL-2 melanoma, in the assay on M14 melanoma, in the assay with NCI-H226 lung, with HCT-15 colon, in the assay on TK-10 renal and in the assay with HT29 colon was greater than 100 µM in each case. Besides, the TGI with EKVX NSCLC, in the assay on UACC-62 melanoma, in the assay with CCRF-CEM leukemia and with OVCAR-5 ovarian was greater than 100 µM each time.
For the compound `CC1(c2cccc3ccccc23)OC(=O)c2ccccc21` (stereo not drawn), the TGI was 62.6 µM in the assay with SK-MEL-2 melanoma; 37.2 µM in the assay with M14 melanoma; 48.3 µM in the assay with NCI-H226 lung; 63.7 µM with HCT-15 colon; greater than 100 µM in the assay on TK-10 renal; 53.8 µM in the assay with HT29 colon. For the same compound, the TGI with EKVX NSCLC was greater than 100 µM; in the assay with UACC-62 melanoma it was 25.6 µM; in the assay on CCRF-CEM leukemia, 52.3 µM; with OVCAR-5 ovarian, greater than 100 µM.
As to `Nc1c(Br)cc(Br)c2c1[nH]c(=O)c1ccccc12`, the GI50 is 20.7 µM in the assay with SK-MEL-2 melanoma; 9890 nM with M14 melanoma; 2750 nM with NCI-H226 lung; 60100 nM in the assay on HCT-15 colon; 3.67 µM in the assay on TK-10 renal; greater than 29700 nM in the assay on HT29 colon. Also, the GI50 is 1360 nM in the assay on EKVX NSCLC, 46.8 µM in the assay with UACC-62 melanoma, 14000 nM with CCRF-CEM leukemia and 25.7 µM in the assay with OVCAR-5 ovarian. In addition, the TGI is 60.3 µM with SK-MEL-2 melanoma; greater than 100 µM in the assay with M14 melanoma; 12.7 µM in the assay with NCI-H226 lung; greater than 100 µM with HCT-15 colon; 10.9 µM with TK-10 renal; greater than 100 µM with HT29 colon. In addition, the TGI is 11.1 µM in the assay with EKVX NSCLC, greater than 100 µM in the assay with UACC-62 melanoma, greater than 81.8 µM with CCRF-CEM leukemia and greater than 100 µM with OVCAR-5 ovarian.
